Data reported in US20260007758A1, “SO[…]-2 RECEPTOR (SST2R) NON-PEPTIDE DRUG CONJUGATES AND USES THEREOF” (Crinetics Pharmaceuticals, Inc., priority 2024, published 2026).
pEC50: −log10 of the molar value. *1 amine or outer side, *2 acyl side, *3 side chain or, on linkers, in order; H or OH if unused. Where a SMILES comes first, the peptide text is derived from it. [ ]: non-standard residue; d: D form. The star is where a group is joined. X1 = Cc1cc(F)cc(-c2cnc(*)c(-c3nc4ccc(Cl)cc4[nH]3)c2N2CCC(N)CC2)c1; Dolaproine = CO[C@@H]([C@@H]1CCCN1)[C@@H](C)C(=O)O; Dil = CC[C@H](C)[C@H](NC)[C@@H](CC(=O)O)OC; PABC = O=C(OCc1ccc(N[*:1])cc1)[*:2]; X2 = C[C@@H](N*)[C@@H](O)c1ccccc1; Cit = NC(=O)NCCC[C@H](N)C(=O)O; PEG4 = NCCOCCOCCOCCOCCC(=O)O; NMeV = CN[C@H](C(=O)O)C(C)C; βAla = NCCC(=O)O

Columns and labels:
Assay type in all cases: cell-based
[1] = tested on: NCI-H524 human small cell lung cancer cells; assay: H524 assay: inhibition of cell proliferation (CellTiter Glo); details: 2 h treatment, washout, additional 70 h incubation
Procedure, shortened: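 NCI-H524 cells were exposed for 2 h to NDC in an 11-point two-fold series starting at 1 uM. The drug was then washed out and cells grew a further 70 h. CellTiter Glo luminescence gave % inhibition versus untreated control, and IC50 came from a four-parameter nonlinear regression.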

[2] = molecular target: T1, human somatostatin receptor subtype 2 (Homo sapiens, UniProt P30874); assay: Functional assay for SSTR2 agonists (HTRF cAMP); details: CHO-K1 cells stably expressing human SST2; NKH477-stimulated cAMP; 20 min at 37 C; read-out: hSST2 cAMP Avg EC50
T1 construct: expressed in transfected cells
Procedure, shortened: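 CHO-K1 cells stably expressing human SSTR2 treated with compound (typically 0-10,000 nM final) for 20 min at 37 °C. Lysate cAMP measured by HTRF (665/620 nm ratio), converted via standard curve; EC50 from cAMP vs concentration.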

SST2 = molecular target: T2, SST2 (Homo sapiens, UniProt P30874); assay: PathHunter CHO-K1 SST2 Internalization Assay; details: PathHunter CHO-K1 SST2 cells; 90 min at 37 C; luminescence; read-out: Internalization EC50
T2 construct: host or cells: PathHunter CHO-K1 SST2 cells
Procedure, shortened: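 CHO-K1 cells expressing human SST2, 2500 cells/well, grown 48 h, then exposed 90 min at 37 C to 11-point 1:3 NDC dilutions (final top 10 uM). Beta-Glo luminescence after 60 min at room temperature; four-parameter IC50, duplicate mean, background-corrected.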

T2 sequence (P30874 whole entry): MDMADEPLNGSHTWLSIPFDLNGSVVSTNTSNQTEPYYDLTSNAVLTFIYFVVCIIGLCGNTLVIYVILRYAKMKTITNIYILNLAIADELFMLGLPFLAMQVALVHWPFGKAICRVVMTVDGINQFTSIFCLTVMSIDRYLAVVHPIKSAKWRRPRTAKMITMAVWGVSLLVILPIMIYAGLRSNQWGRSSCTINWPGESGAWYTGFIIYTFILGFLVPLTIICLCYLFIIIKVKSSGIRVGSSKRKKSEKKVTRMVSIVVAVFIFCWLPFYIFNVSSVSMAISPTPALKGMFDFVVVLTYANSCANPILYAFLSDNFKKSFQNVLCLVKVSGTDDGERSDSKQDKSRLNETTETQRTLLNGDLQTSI
T1 sequence (P30874 whole entry): as above

| SMILES | pEC50 [1] | pEC50 [2] | pEC50 (SST2) |
| --- | --- | --- | --- |
| CC[C@H](C)[C@@H]([C@@H](CC(=O)N1CCC[C@H]1[C@H](OC)[C@@H](C)C(=O)N[C@H](C)[C@@H](O)c1ccccc1)OC)N(C)C(=O)[C@H](C)NC(=O)[C@H](C(C)C)N(C)C(=O)OCc1ccc(NC(=O)[C@H](C)NC(=O)[C@@H](NC(=O)CCOCCNC(=O)CCNc2ncc(-c3cc(C)cc(F)c3)c(N3CCC(N)CC3)c2-c2nc3ccc(Cl)cc3[nH]2)C(C)C)c(O[C@@H]2O[C@H](C(=O)O)[C@@H](O)[C@H](O)[C@H]2O)c1 [Compound 194] | 7.68 | 9.80 | 8.12 |
| CC[C@H](C)[C@@H]([C@@H](CC(=O)N1CCC[C@H]1[C@H](OC)[C@@H](C)C(=O)N[C@H](C)[C@@H](O)c1ccccc1)OC)N(C)C(=O)[C@@H](NC(=O)[C@H](C(C)C)N(C)C(=O)OCc1ccc(NC(=O)[C@H](CCCNC(N)=O)NC(=O)[C@@H](NC(=O)CCOCCC(=O)NCCCNc2ncc(-c3cc(C)cc(F)c3)c(N3CCC(N)CC3)c2-c2nc3ccc(Cl)cc3[nH]2)C(C)C)c(O[C@@H]2O[C@H](C(=O)O)[C@@H](O)[C@H](O)[C@H]2O)c1)C(C)C [Compound 195] | 8.07 | 9.46 | 8.39 |
| CC[C@H](C)[C@@H]([C@@H](CC(=O)N1CCC[C@H]1[C@H](OC)[C@@H](C)C(=O)N[C@H](C)[C@@H](O)c1ccccc1)OC)N(C)C(=O)[C@@H](NC(=O)[C@H](C(C)C)N(C)C(=O)OCc1ccc(NC(=O)[C@H](CCCNC(N)=O)NC(=O)[C@@H](NC(=O)CCOCCOCCOCCOCCNC(=O)CCNc2ncc(-c3cc(C)cc(F)c3)c(N3CCC(N)CC3)c2-c2nc3ccc(Cl)cc3[nH]2)C(C)C)cc1)C(C)C [Compound 196] ({X1-βAla-PEG4}-V[Cit][PABC][NMeV]V[Dil][Dolaproine]-X2) | 7.55 | 9.54 | 8.07 |
| CC[C@H](C)[C@@H]([C@@H](CC(=O)N1CCC[C@H]1[C@H](OC)[C@@H](C)C(=O)N[C@H](C)[C@@H](O)c1ccccc1)OC)N(C)C(=O)[C@@H](NC(=O)[C@H](C(C)C)N(C)C(=O)OCc1ccc(NC(=O)[C@H](CCCNC(N)=O)NC(=O)[C@@H](NC(=O)CCOCCOCCOCCOCCC(=O)NCCCNc2ncc(-c3cc(C)cc(F)c3)c(N3CCC(N)CC3)c2-c2nc3ccc(Cl)cc3[nH]2)C(C)C)cc1)C(C)C [Compound 197] | 7.92 | 9.57 | 8.19 |
| CC[C@H](C)[C@@H]([C@@H](CC(=O)N1CCCC1[C@H](OC)[C@@H](C)C(=O)N[C@H](C)[C@@H](O)c1ccccc1)OC)N(C)C(=O)[C@@H](NC(=O)[C@H](C(C)C)N(C)C(=O)OCc1ccc(NC(=O)[C@H](CCCNC(N)=O)NC(=O)[C@@H](NC(=O)CCOCCC(=O)N(C)CC(=O)NCCNc2ncc(-c3cc(C)cc(F)c3)c(N3CCC(N)CC3)c2-c2nc3ccc(Cl)cc3[nH]2)C(C)C)c(OC)c1)C(C)C (stereo partly drawn) [Compound 198] | 7.49 | 10.09 | 8.46 |
| CC[C@H](C)[C@@H]([C@@H](CC(=O)N1CCC[C@H]1[C@H](OC)[C@@H](C)C(=O)N[C@H](C)[C@@H](O)c1ccccc1)OC)N(C)C(=O)[C@@H](NC(=O)[C@H](C(C)C)N(C)C(=O)OCc1ccc(NC(=O)[C@H](CCCNC(N)=O)NC(=O)[C@@H](NC(=O)CCOCCC(=O)N(C)CC(=O)NCCNc2ncc(-c3cc(C)cc(F)c3)c(N3CCC(N)CC3)c2-c2nc3ccc(Cl)cc3[nH]2)C(C)C)c(O)c1)C(C)C [Compound 199] | 8.05 | 10.15 | 8.39 |
| CC[C@H](C)[C@@H]([C@@H](CC(=O)N1CCC[C@H]1[C@H](OC)[C@@H](C)C(=O)N[C@H](C)[C@@H](O)c1ccccc1)OC)N(C)C(=O)[C@@H](NC(=O)[C@H](C(C)C)N(C)C(=O)OCc1ccc(NC(=O)[C@H](CCCNC(N)=O)NC(=O)[C@@H](NC(=O)C[C@@H](N)C(=O)NCCOCCC(=O)NCCNc2ncc(-c3cc(C)cc(F)c3)c(N3CCC(N)CC3)c2-c2nc3ccc(Cl)cc3[nH]2)C(C)C)c(O[C@@H](C)C(=O)O)c1)C(C)C [Compound 200] | 7.64 | 9.74 | 8.41 |
| CC[C@H](C)[C@@H]([C@@H](CC(=O)N1CCCC1[C@H](OC)[C@@H](C)C(=O)N[C@H](C)[C@@H](O)c1ccccc1)OC)N(C)C(=O)[C@@H](NC(=O)[C@H](C(C)C)N(C)C(=O)OCc1ccc(NC(=O)[C@H](CCCNC(N)=O)NC(=O)[C@@H](NC(=O)[C@H](Cc2c[nH]cn2)NC(=O)CCOCCC(=O)NCCNc2ncc(-c3cc(C)cc(F)c3)c(N3CCC(N)CC3)c2-c2nc3ccc(Cl)cc3[nH]2)C(C)C)c(OCC(=O)O)c1)C(C)C (stereo partly drawn) [Compound 202] | 7.85 | 9.85 | 8.34 |
| CC[C@H](C)[C@@H]([C@@H](CC(=O)N1CCC[C@H]1[C@H](OC)[C@@H](C)C(=O)N[C@H](C)[C@@H](O)c1ccccc1)OC)N(C)C(=O)[C@@H](NC(=O)[C@H](C(C)C)N(C)C(=O)OCc1ccc(NC(=O)[C@H](CCCNC(N)=O)NC(=O)[C@@H](NC(=O)[C@@H](NC(=O)CCOCCC(=O)NCCNc2ncc(-c3cc(C)cc(F)c3)c(N3CCC(N)CC3)c2-c2nc3ccc(Cl)cc3[nH]2)c2cnn(C)c2)C(C)C)c(OCC(=O)O)c1)C(C)C [Compound 203] | 7.15 | 9.96 | 8.11 |
| CC[C@H](C)[C@@H]([C@@H](CC(=O)N1CCC[C@H]1[C@H](OC)[C@@H](C)C(=O)N[C@H](C)[C@@H](O)c1ccccc1)OC)N(C)C(=O)[C@@H](NC(=O)[C@H](C(C)C)N(C)C(=O)OCc1ccc(NC(=O)[C@H](CCCNC(N)=O)NC(=O)[C@@H](NC(=O)[C@H](NC(=O)CCOCCC(=O)NCCNc2ncc(-c3cc(C)cc(F)c3)c(N3CCC(N)CC3)c2-c2nc3ccc(Cl)cc3[nH]2)c2cnn(C)c2)C(C)C)c(OCC(=O)O)c1)C(C)C [Compound 204] | 7.52 | 9.85 | 8.04 |
| CC[C@H](C)[C@@H]([C@@H](CC(=O)N1CCC[C@H]1[C@H](OC)[C@@H](C)C(=O)N[C@H](C)[C@@H](O)c1ccccc1)OC)N(C)C(=O)[C@@H](NC(=O)[C@H](C(C)C)N(C)C(=O)OCc1ccc(NC(=O)[C@H](CCCNC(N)=O)NC(=O)[C@@H](NC(=O)C[C@@H](N)C(=O)NCCOCCC(=O)NCCNc2ncc(-c3cc(C)cc(F)c3)c(N3CCC(N)CC3)c2-c2nc3ccc(Cl)cc3[nH]2)C(C)C)c(CCC(=O)O)c1)C(C)C [Compound 205] | 7.43 | 10.07 | 8.28 |
| CC[C@H](C)[C@@H]([C@@H](CC(=O)N1CCC[C@H]1[C@H](OC)[C@@H](C)C(=O)N[C@H](C)[C@@H](O)c1ccccc1)OC)N(C)C(=O)[C@@H](NC(=O)[C@H](C(C)C)N(C)C(=O)OCc1ccc(NC(=O)[C@H](C)NC(=O)[C@@H](NC(=O)CCOCCC(=O)N(C)CC(=O)NCCNc2ncc(-c3cc(C)cc(F)c3)c(N3CCC(N)CC3)c2-c2nc3ccc(Cl)cc3[nH]2)C(C)C)c(O[C@@H]2O[C@H](C(=O)NCCO)[C@@H](O)[C@H](O)[C@H]2O)c1)C(C)C [Compound 206] | 7.85 | 9.92 | 8.35 |
| CC[C@H](C)[C@@H]([C@@H](CC(=O)N1CCC[C@H]1[C@H](OC)[C@@H](C)C(=O)N[C@H](C)[C@@H](O)c1ccccc1)OC)N(C)C(=O)[C@@H](NC(=O)[C@H](C(C)C)N(C)C(=O)OCc1ccc(NC(=O)[C@H](CCCNC(N)=O)NC(=O)[C@@H](NC(=O)CCOCCC(=O)N(C)CC(=O)NCCNc2ncc(-c3cc(C)cc(F)c3)c(N3CCC(N)CC3)c2-c2nc3ccc(Cl)cc3[nH]2)C(C)C)c(O[C@@H]2O[C@H](C(=O)NCCO)[C@@H](O)[C@H](O)[C@H]2O)c1)C(C)C [Compound 207] | 8.08 | 9.64 | 8.23 |
| CC[C@H](C)[C@@H]([C@@H](CC(=O)N1CCC[C@H]1[C@H](OC)[C@@H](C)C(=O)N[C@H](C)[C@@H](O)c1ccccc1)OC)N(C)C(=O)[C@@H](NC(=O)[C@H](C(C)C)N(C)C(=O)OCc1ccc(NC(=O)[C@H](CCCNC(N)=O)NC(=O)[C@@H](NC(=O)CCOCCC(=O)NCCNc2ncc(-c3cc(C)cc(F)c3)c(N3CCC(N)CC3)c2-c2nc3ccc(Cl)cc3[nH]2)C(C)C)c(O[C@@H]2O[C@H](C(=O)NCCS(=O)(=O)O)[C@@H](O)[C@H](O)[C@H]2O)c1)C(C)C [Compound 208] | 8.05 | 10.21 | 8.51 |
| CC[C@H](C)[C@@H]([C@@H](CC(=O)N1CCC[C@H]1[C@H](OC)[C@@H](C)C(=O)N[C@H](C)[C@@H](O)c1ccccc1)OC)N(C)C(=O)[C@@H](NC(=O)[C@H](C(C)C)N(C)C(=O)OCc1ccc(NC(=O)[C@H](CCCNC(N)=O)NC(=O)[C@@H](NC(=O)CCCC(=O)N(C)CC(=O)NCCNc2ncc(-c3cc(C)cc(F)c3)c(N3CCC(N)CC3)c2-c2nc3ccc(Cl)cc3[nH]2)C(C)C)c(O[C@@H]2O[C@H](C(=O)NCCN)[C@@H](O)[C@H](O)[C@H]2O)c1)C(C)C [Compound 209] | 8.82 | 9.96 | 8.57 |
| CC[C@H](C)[C@@H]([C@@H](CC(=O)N1CCC[C@H]1[C@H](OC)[C@@H](C)C(=O)N[C@H](C)[C@@H](O)c1ccccc1)OC)N(C)C(=O)[C@@H](NC(=O)[C@H](C(C)C)N(C)C(=O)OCc1ccc(NC(=O)[C@H](CCCNC(N)=O)NC(=O)C2(NC(=O)CCOCCC(=O)NCCNc3ncc(-c4cc(C)cc(F)c4)c(N4CCC(N)CC4)c3-c3nc4ccc(Cl)cc4[nH]3)CCC2)c(O[C@H]2O[C@H](C(=O)NCC(=O)O)[C@@H](O)[C@H](O)[C@H]2O)c1)C(C)C [Compound 210] | 5.64 | 10.29 | 8.55 |
